PubChem BioAssay (NCI)
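Dose response: 5 concentrations. Exposure: 48 h. Format: 96-well plates. Endpoint: linear interpolation; highest concentration if not reached. GI50 marks 50% less growth. TGI marks complete inhibition of growth.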

How the values were obtained:
Assay in all cases: growth of human tumour cells (NCI), 48 h
M14 melanoma = tested on: M14 melanoma
BT-549 breast = tested on: BT-549 breast
CAKI-1 renal = tested on: CAKI-1 renal
HCC-2998 colon = tested on: HCC-2998 colon
A549 NSCLC = tested on: A549 NSCLC
SNB-19 CNS = tested on: SNB-19 CNS
MALME-3M melanoma = tested on: MALME-3M melanoma
LOX IMVI melanoma = tested on: LOX IMVI melanoma
HL-60(TB) leukemia = tested on: HL-60(TB) leukemia
UACC-62 melanoma = tested on: UACC-62 melanoma
MDA-MB-231 breast = tested on: MDA-MB-231 breast
HT29 colon = tested on: HT29 colon
SF-268 CNS = tested on: SF-268 CNS
SW-620 colon = tested on: SW-620 colon
SNB-75 CNS = tested on: SNB-75 CNS
SK-OV-3 ovarian = tested on: SK-OV-3 ovarian
SK-MEL-28 melanoma = tested on: SK-MEL-28 melanoma
HCT-116 colon = tested on: HCT-116 colon
K-562 leukemia = tested on: K-562 leukemia
MDA-MB-435 = tested on: MDA-MB-435
RXF 393 renal = tested on: RXF 393 renal
OVCAR-8 ovarian = tested on: OVCAR-8 ovarian
OVCAR-3 ovarian = tested on: OVCAR-3 ovarian
COLO 205 colon = tested on: COLO 205 colon
KM12 colon = tested on: KM12 colon
SN12C renal = tested on: SN12C renal
OVCAR-5 ovarian = tested on: OVCAR-5 ovarian
A498 renal = tested on: A498 renal
HOP-62 NSCLC = tested on: HOP-62 NSCLC
MOLT-4 leukemia = tested on: MOLT-4 leukemia
IGROV1 ovarian = tested on: IGROV1 ovarian
HOP-92 NSCLC = tested on: HOP-92 NSCLC
NCI-H460 lung = tested on: NCI-H460 lung
SF-539 CNS = tested on: SF-539 CNS
U251 CNS = tested on: U251 CNS
NCI-H226 lung = tested on: NCI-H226 lung
NCI-H23 lung = tested on: NCI-H23 lung
786-0 renal = tested on: 786-0 renal
SR leukemia = tested on: SR leukemia
HS 578T breast = tested on: HS 578T breast
PC-3 prostate = tested on: PC-3 prostate
TK-10 renal = tested on: TK-10 renal
CCRF-CEM leukemia = tested on: CCRF-CEM leukemia
ACHN renal = tested on: ACHN renal
T-47D breast = tested on: T-47D breast
DU-145 prostate = tested on: DU-145 prostate
MCF7 breast = tested on: MCF7 breast
NCI-H522 lung = tested on: NCI-H522 lung
NCI/ADR-RES ovarian = tested on: NCI/ADR-RES ovarian
SK-MEL-5 melanoma = tested on: SK-MEL-5 melanoma
OVCAR-4 ovarian = tested on: OVCAR-4 ovarian
UO-31 renal = tested on: UO-31 renal
HCT-15 colon = tested on: HCT-15 colon
EKVX NSCLC = tested on: EKVX NSCLC
SF-295 CNS = tested on: SF-295 CNS
RPMI-8226 leukemia = tested on: RPMI-8226 leukemia
SK-MEL-2 melanoma = tested on: SK-MEL-2 melanoma
UACC-257 melanoma = tested on: UACC-257 melanoma

Nc1nonc1C(=Nc1ccc(F)c(Cl)c1)NO
GI50 (M14 melanoma): 51.9 µM
TGI (M14 melanoma): > 100 µM
GI50 (BT-549 breast): 29.8 µM
TGI (BT-549 breast): > 100 µM
GI50 (CAKI-1 renal): 28.8 µM
TGI (CAKI-1 renal): > 100 µM
GI50 (HCC-2998 colon): > 91.5 µM
TGI (HCC-2998 colon): > 100 µM
GI50 (A549 NSCLC): > 66 µM
TGI (A549 NSCLC): > 100 µM
GI50 (SNB-19 CNS): > 94.2 µM
TGI (SNB-19 CNS): > 100 µM
GI50 (MALME-3M melanoma): 95.2 µM
TGI (MALME-3M melanoma): > 100 µM
GI50 (LOX IMVI melanoma): 40 µM
TGI (LOX IMVI melanoma): > 100 µM
GI50 (HL-60(TB) leukemia): 62.8 µM
TGI (HL-60(TB) leukemia): > 100 µM
GI50 (UACC-62 melanoma): 29.8 µM
TGI (UACC-62 melanoma): > 100 µM
GI50 (MDA-MB-231 breast): 29.7 µM
TGI (MDA-MB-231 breast): > 100 µM
GI50 (HT29 colon): > 100 µM
TGI (HT29 colon): > 100 µM
GI50 (SF-268 CNS): 39.4 µM
TGI (SF-268 CNS): > 100 µM
GI50 (SW-620 colon): > 100 µM
TGI (SW-620 colon): > 100 µM
GI50 (SNB-75 CNS): 14.2 µM
TGI (SNB-75 CNS): 76.5 µM
GI50 (SK-OV-3 ovarian): 49.3 µM
TGI (SK-OV-3 ovarian): > 100 µM
GI50 (SK-MEL-28 melanoma): > 100 µM
TGI (SK-MEL-28 melanoma): > 100 µM
GI50 (HCT-116 colon): 51.5 µM
TGI (HCT-116 colon): > 100 µM
GI50 (K-562 leukemia): 58.8 µM
TGI (K-562 leukemia): > 100 µM
GI50 (MDA-MB-435): > 88.4 µM
TGI (MDA-MB-435): > 100 µM
GI50 (RXF 393 renal): 33.6 µM
TGI (RXF 393 renal): > 100 µM
GI50 (OVCAR-8 ovarian): 71.1 µM
TGI (OVCAR-8 ovarian): > 100 µM
GI50 (OVCAR-3 ovarian): 43.1 µM
TGI (OVCAR-3 ovarian): > 100 µM
GI50 (COLO 205 colon): 60.5 µM
TGI (COLO 205 colon): > 100 µM
GI50 (KM12 colon): 79 µM
TGI (KM12 colon): > 100 µM
GI50 (SN12C renal): 45.8 µM
TGI (SN12C renal): > 100 µM
GI50 (OVCAR-5 ovarian): 53.2 µM
TGI (OVCAR-5 ovarian): > 100 µM
GI50 (A498 renal): 21.1 µM
TGI (A498 renal): > 86.9 µM
GI50 (HOP-62 NSCLC): 28 µM
TGI (HOP-62 NSCLC): > 100 µM
GI50 (MOLT-4 leukemia): 43.4 µM
TGI (MOLT-4 leukemia): > 100 µM
GI50 (IGROV1 ovarian): 28.9 µM
TGI (IGROV1 ovarian): > 100 µM
GI50 (HOP-92 NSCLC): 12.6 µM
TGI (HOP-92 NSCLC): 54.9 µM
GI50 (NCI-H460 lung): > 93.2 µM
TGI (NCI-H460 lung): > 100 µM
GI50 (SF-539 CNS): 54.2 µM
TGI (SF-539 CNS): > 100 µM
GI50 (U251 CNS): > 75.7 µM
TGI (U251 CNS): > 100 µM
GI50 (NCI-H226 lung): 68 µM
TGI (NCI-H226 lung): > 100 µM
GI50 (NCI-H23 lung): 46.6 µM
TGI (NCI-H23 lung): > 100 µM
GI50 (786-0 renal): 63.3 µM
TGI (786-0 renal): > 100 µM
GI50 (SR leukemia): > 63.2 µM
TGI (SR leukemia): > 100 µM
GI50 (HS 578T breast): 49.5 µM
TGI (HS 578T breast): > 100 µM
GI50 (PC-3 prostate): 42.4 µM
TGI (PC-3 prostate): > 100 µM
GI50 (TK-10 renal): 55.9 µM
TGI (TK-10 renal): > 100 µM
GI50 (CCRF-CEM leukemia): 98.3 µM
TGI (CCRF-CEM leukemia): > 100 µM
GI50 (ACHN renal): 32.7 µM
TGI (ACHN renal): > 100 µM
GI50 (T-47D breast): 20.4 µM
TGI (T-47D breast): > 100 µM
GI50 (DU-145 prostate): 63.7 µM
TGI (DU-145 prostate): > 100 µM
GI50 (MCF7 breast): 41.6 µM
TGI (MCF7 breast): > 100 µM
GI50 (NCI-H522 lung): > 47.1 µM
TGI (NCI-H522 lung): > 100 µM
GI50 (NCI/ADR-RES ovarian): 49.2 µM
TGI (NCI/ADR-RES ovarian): > 100 µM
GI50 (SK-MEL-5 melanoma): 41.4 µM
TGI (SK-MEL-5 melanoma): > 100 µM
GI50 (OVCAR-4 ovarian): 25.3 µM
TGI (OVCAR-4 ovarian): > 100 µM
GI50 (UO-31 renal): 12.6 µM
TGI (UO-31 renal): 97.5 µM
GI50 (HCT-15 colon): 47.3 µM
TGI (HCT-15 colon): > 100 µM
GI50 (EKVX NSCLC): 25.1 µM
TGI (EKVX NSCLC): > 100 µM
GI50 (SF-295 CNS): 37.9 µM
TGI (SF-295 CNS): > 100 µM
GI50 (RPMI-8226 leukemia): 42.3 µM
TGI (RPMI-8226 leukemia): > 100 µM
GI50 (SK-MEL-2 melanoma): 65 µM
TGI (SK-MEL-2 melanoma): > 100 µM

O=C1C(Cl)=C(N2CCN(CCOCCO)CC2)C(=O)c2ncccc21
TGI (M14 melanoma): > 10 µM
TGI (BT-549 breast): > 10 µM
TGI (CAKI-1 renal): > 10 µM
TGI (HCC-2998 colon): > 10 µM
TGI (A549 NSCLC): > 10 µM
TGI (UACC-257 melanoma): > 10 µM
TGI (SNB-19 CNS): > 10 µM
TGI (MALME-3M melanoma): > 10 µM
TGI (LOX IMVI melanoma): > 10 µM
TGI (HL-60(TB) leukemia): > 10 µM
TGI (UACC-62 melanoma): > 10 µM
TGI (MDA-MB-231 breast): > 10 µM
TGI (HT29 colon): > 10 µM
TGI (SF-268 CNS): > 10 µM
TGI (SW-620 colon): > 10 µM
TGI (SNB-75 CNS): > 10 µM
TGI (SK-OV-3 ovarian): > 10 µM
TGI (SK-MEL-28 melanoma): > 10 µM
TGI (HCT-116 colon): > 10 µM
TGI (K-562 leukemia): > 10 µM
TGI (MDA-MB-435): 7.05 µM
TGI (RXF 393 renal): 9.68 µM
TGI (OVCAR-8 ovarian): > 10 µM
TGI (OVCAR-3 ovarian): > 10 µM
TGI (COLO 205 colon): > 10 µM
TGI (KM12 colon): > 10 µM
TGI (SN12C renal): > 10 µM
TGI (OVCAR-5 ovarian): > 10 µM
TGI (A498 renal): > 10 µM
TGI (HOP-62 NSCLC): > 10 µM
TGI (MOLT-4 leukemia): > 10 µM
TGI (IGROV1 ovarian): > 10 µM
TGI (HOP-92 NSCLC): 3.29 µM
TGI (NCI-H460 lung): > 10 µM
TGI (SF-539 CNS): > 10 µM
TGI (U251 CNS): > 10 µM
TGI (NCI-H226 lung): > 10 µM
TGI (NCI-H23 lung): > 10 µM
TGI (786-0 renal): > 10 µM
TGI (SR leukemia): > 10 µM
TGI (HS 578T breast): > 10 µM
TGI (PC-3 prostate): > 10 µM
TGI (TK-10 renal): > 10 µM
TGI (CCRF-CEM leukemia): > 10 µM
TGI (ACHN renal): > 10 µM
TGI (T-47D breast): 5.51 µM
TGI (DU-145 prostate): > 10 µM
TGI (MCF7 breast): > 10 µM
TGI (NCI-H522 lung): 6.33 µM
TGI (NCI/ADR-RES ovarian): > 10 µM
TGI (SK-MEL-5 melanoma): > 10 µM
TGI (OVCAR-4 ovarian): > 10 µM
TGI (HCT-15 colon): > 10 µM
TGI (EKVX NSCLC): > 10 µM
TGI (SF-295 CNS): > 10 µM
TGI (RPMI-8226 leukemia): > 10 µM
TGI (SK-MEL-2 melanoma): > 10 µM
